Measured values as given in article PMC8996072, “Ag120-Mediated Inhibition of ASCT2-Dependent Glutamine Transport has an Anti-Tumor Effect on Colorectal Cancer Cells” (Frontiers in Pharmacology, 2022).

Biological target: T1, ASCT2 (Homo sapiens, UniProt Q15758)
T1 construct: gene SLC1A5
T1 sequence (Q15758 1-541): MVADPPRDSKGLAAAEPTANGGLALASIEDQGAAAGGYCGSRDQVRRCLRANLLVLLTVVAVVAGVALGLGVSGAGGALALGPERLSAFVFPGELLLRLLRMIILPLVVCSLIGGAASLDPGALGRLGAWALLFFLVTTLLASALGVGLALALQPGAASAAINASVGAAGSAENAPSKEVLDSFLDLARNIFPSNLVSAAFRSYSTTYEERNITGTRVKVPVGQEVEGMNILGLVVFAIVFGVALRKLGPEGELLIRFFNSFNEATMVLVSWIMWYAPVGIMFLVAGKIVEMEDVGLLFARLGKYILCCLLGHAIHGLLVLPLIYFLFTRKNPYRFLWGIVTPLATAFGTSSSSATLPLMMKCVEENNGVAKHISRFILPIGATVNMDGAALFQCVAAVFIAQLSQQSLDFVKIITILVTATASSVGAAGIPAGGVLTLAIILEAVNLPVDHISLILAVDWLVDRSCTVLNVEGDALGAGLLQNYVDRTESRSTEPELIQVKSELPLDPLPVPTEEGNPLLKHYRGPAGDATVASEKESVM
Experiment: SPR (Biacore T200), purified human ASCT2
Assay type: binding

Kd: 5.91 µM
SMILES: N#Cc1ccnc(N2C(=O)CC[C@H]2C(=O)N(c2cncc(F)c2)[C@H](C(=O)NC2CC(F)(F)C2)c2ccccc2Cl)c1 [Ag120]
